Data reported in US11725007B2, “Meta tyrosine derivatives as rho-kinase inhibitors” (Chiesi Farmaceutici S.p.A., priority 2017, dated 2023).

Legend:
[1] = molecular target: Rho kinase 1 (ROCK1) (Homo sapiens, UniProt Q13464); assay: In vitro Rho kinase inhibitory activity assay (ADP-Glo), ROCK1; type: biochemical; conditions: 10 μM ATP, Myelin Basic Protein substrate, 25° C., Ki by Cheng-Prusoff
Description: (§1) The effectiveness of compounds of the invention to inhibit Rho kinase activity can be determined in a 10 μl assay containing 40 mM Tris pH7.5, 20 mM MgCl2 0.1 mg/ml BSA, 50 μM DTT and 2.5 μM peptide substrate (Myelin Basic Protein) using an ADP-Glo kit (Promega). Compounds were dissolved in DMSO such that the final concentration of DMSO was 1% in the assay. All reactions/incubations are performed at 25° C. Compound (2 ul) and either Rho kinase 1 or 2 (4 μl) were mixed and incubated for 30 mins. Reactions were initiated by addition of ATP (4 μl) such that the final concentration of ATP in the assay was 10 μM. After a 1 hour incubation 10 μl of ADP-Glo Reagent was added and after a further 45 minute incubation 20 ul of Kinase Detection Buffer was added and the mixture incubated for a further 30 minutes. The luminescent signal was measured on a luminometer. […] Compounds were tested in dose-response format and the inhibition of kinase activity was calculated at each concentration of compound. To determine the IC50 (concentration of compound required to inhibit 50% of the enzyme activity) data were fit to a plot of % inhibition vs Log10 compound concentration using a sigmoidal fit with a variable slope and fixing the maximum to 100% and the minimum to 0%. To determine the Ki values the Cheng-Prusoff equation was utilized (Ki=IC50/(1+[S]/Km)

[2] = molecular target: Rho kinase 2 (ROCK2) (Homo sapiens, UniProt O75116); assay: In vitro Rho kinase inhibitory activity assay (ADP-Glo), ROCK2; type: biochemical; conditions: 10 μM ATP, Myelin Basic Protein substrate, 25° C., Ki by Cheng-Prusoff
Sequence of Rho kinase 2 (ROCK2) (O75116 whole entry): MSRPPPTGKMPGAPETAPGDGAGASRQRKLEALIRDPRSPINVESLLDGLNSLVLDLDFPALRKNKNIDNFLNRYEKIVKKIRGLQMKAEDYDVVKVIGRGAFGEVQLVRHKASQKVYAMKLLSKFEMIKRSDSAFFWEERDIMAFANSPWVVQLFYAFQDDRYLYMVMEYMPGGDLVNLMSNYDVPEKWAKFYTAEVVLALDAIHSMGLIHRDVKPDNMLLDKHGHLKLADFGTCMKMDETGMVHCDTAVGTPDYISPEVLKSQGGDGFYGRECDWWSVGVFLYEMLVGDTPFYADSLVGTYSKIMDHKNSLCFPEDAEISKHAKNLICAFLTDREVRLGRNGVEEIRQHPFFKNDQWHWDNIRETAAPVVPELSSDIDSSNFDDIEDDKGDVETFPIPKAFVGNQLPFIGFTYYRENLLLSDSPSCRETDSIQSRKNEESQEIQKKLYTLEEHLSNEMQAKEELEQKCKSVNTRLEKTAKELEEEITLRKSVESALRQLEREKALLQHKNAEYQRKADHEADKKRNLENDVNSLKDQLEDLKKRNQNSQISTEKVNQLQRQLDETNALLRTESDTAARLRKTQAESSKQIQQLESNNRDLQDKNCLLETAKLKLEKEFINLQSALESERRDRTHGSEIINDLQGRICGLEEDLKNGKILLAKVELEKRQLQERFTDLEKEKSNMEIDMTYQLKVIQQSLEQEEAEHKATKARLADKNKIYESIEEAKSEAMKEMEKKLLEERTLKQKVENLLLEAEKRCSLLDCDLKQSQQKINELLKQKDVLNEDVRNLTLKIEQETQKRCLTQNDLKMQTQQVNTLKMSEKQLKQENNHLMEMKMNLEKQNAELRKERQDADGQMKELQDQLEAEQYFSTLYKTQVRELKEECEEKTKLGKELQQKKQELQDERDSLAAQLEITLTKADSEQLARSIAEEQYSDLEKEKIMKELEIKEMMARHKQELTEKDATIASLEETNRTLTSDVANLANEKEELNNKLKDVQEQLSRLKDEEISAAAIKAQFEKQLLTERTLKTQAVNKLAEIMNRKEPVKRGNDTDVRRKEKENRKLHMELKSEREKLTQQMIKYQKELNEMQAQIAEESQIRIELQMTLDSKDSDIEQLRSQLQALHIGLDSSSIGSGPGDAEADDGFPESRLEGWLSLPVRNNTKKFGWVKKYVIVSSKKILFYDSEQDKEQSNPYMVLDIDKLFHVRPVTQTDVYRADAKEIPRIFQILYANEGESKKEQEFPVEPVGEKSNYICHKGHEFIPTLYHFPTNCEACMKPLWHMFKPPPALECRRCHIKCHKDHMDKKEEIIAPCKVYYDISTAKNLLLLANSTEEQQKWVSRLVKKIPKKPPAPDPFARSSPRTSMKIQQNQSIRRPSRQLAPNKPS
Description: as §1

Sequence of Rho kinase 1 (ROCK1) (Q13464 whole entry): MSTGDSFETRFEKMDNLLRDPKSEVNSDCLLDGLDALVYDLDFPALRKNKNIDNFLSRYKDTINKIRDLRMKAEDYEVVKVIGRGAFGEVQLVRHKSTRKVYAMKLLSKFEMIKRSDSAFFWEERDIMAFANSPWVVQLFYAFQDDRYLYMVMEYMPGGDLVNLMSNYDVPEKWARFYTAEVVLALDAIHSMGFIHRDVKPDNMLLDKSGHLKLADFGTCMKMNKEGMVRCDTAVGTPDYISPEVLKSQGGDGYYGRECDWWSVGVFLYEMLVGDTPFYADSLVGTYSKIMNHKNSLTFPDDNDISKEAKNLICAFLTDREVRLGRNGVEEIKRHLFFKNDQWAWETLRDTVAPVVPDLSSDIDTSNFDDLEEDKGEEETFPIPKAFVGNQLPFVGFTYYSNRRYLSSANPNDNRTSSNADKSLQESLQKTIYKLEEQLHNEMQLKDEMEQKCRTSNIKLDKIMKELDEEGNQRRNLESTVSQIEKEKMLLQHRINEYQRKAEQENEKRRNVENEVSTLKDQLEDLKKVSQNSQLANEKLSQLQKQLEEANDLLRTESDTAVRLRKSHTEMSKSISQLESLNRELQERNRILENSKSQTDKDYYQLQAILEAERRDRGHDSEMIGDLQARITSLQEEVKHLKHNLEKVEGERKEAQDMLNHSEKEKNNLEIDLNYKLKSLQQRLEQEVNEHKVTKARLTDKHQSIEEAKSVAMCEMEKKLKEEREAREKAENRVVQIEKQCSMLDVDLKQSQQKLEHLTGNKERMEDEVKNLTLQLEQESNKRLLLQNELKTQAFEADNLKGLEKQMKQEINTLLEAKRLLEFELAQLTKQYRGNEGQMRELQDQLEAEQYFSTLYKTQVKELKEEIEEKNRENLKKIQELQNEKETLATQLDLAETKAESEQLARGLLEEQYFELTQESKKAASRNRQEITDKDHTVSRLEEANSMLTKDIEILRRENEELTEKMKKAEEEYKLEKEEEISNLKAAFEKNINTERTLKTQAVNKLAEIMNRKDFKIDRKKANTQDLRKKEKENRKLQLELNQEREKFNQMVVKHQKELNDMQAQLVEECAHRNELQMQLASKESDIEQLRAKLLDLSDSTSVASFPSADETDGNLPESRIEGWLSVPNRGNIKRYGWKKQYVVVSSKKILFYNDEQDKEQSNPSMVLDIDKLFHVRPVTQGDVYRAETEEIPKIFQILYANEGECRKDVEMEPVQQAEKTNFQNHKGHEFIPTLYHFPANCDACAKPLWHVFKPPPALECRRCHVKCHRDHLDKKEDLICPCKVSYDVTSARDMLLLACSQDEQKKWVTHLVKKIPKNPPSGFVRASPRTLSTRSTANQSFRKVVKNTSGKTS

Cc1c[nH]c2nccc(Oc3cccc(CC(N)C(=O)N4CCN(C)CC4)c3)c12 (centres unmarked) [Example 1, 2-Amino-3-(3-((3-methyl-1H-pyrrolo[2,3-b]pyridin-4-yl)oxy)phenyl)-1-(4-methylpiperazin-1-yl)propan-1-one]
Ki [1]: 5 to 50 nM | Ki [2]: 5 to 50 nM

COCCCNC(=O)C(N)Cc1cccc(Oc2ccnc3[nH]cc(C)c23)c1 (centres unmarked) [Example 2, 2-amino-N-(3-methoxypropyl)-3-(3-((3-methyl-1H-pyrrolo[2,3-b]pyridin-4-yl)oxy)phenyl)propanamide]
Ki [1]: 5 to 50 nM | Ki [2]: 5 to 50 nM

Cc1c[nH]c2nccc(Oc3cccc(CC(N)C(=O)NCCCN(C)C)c3)c12 (centres unmarked) [Example 3, 2-amino-N-(3-(dimethylamino)propyl)-3-(3-((3-methyl-1H-pyrrolo[2,3-b]pyridin-4-yl)oxy)phenyl)propanamide]
Ki [1]: > 50 nM | Ki [2]: > 50 nM

Cc1c[nH]c2nccc(Oc3cccc(CC(N)C(=O)NCCc4ccncc4)c3)c12 (centres unmarked) [Example 4, 2-amino-3-(3-((3-methyl-1H-pyrrolo[2,3-b]pyridin-4-yl)oxy)phenyl)-N-(2-(pyridin-4-yl)ethyl)propanamide]
Ki [1]: < 5 nM | Ki [2]: < 5 nM

Cc1c[nH]c2nccc(Oc3cccc(C(N)CC(=O)N4CCN(C)CC4)c3)c12 (centres unmarked) [Example 5, 3-amino-3-(3-((3-methyl-1H-pyrrolo[2,3-b]pyridin-4-yl)oxy)phenyl)-1-(4-methylpiperazin-1-yl)propan-1-one]
Ki [1]: 5 to 50 nM | Ki [2]: 5 to 50 nM

COCCCNC(=O)CC(N)c1cccc(Oc2ccnc3[nH]cc(C)c23)c1 (centres unmarked) [Example 6, 3-amino-N-(3-methoxypropyl)-3-(3-((3-methyl-1H-pyrrolo[2,3-b]pyridin-4-yl)oxy)phenyl)propanamide]
Ki [1]: 5 to 50 nM | Ki [2]: 5 to 50 nM

Cc1c[nH]c2nccc(Oc3cccc(C(N)CC(=O)NCCc4ccncc4)c3)c12 (centres unmarked) [Example 7, 3-amino-3-(3-((3-methyl-1H-pyrrolo[2,3-b]pyridin-4-yl)oxy)phenyl)-N-(2-(pyridin-4-yl)ethyl)propanamide]
Ki [1]: 5 to 50 nM | Ki [2]: 5 to 50 nM

Cc1c[nH]c2nccc(Oc3cccc(C(N)CC(=O)NCCCN(C)C)c3)c12 (centres unmarked) [Example 8, 3-amino-N-(3-(dimethylamino)propyl)-3-(3-((3-methyl-1H-pyrrolo[2,3-b]pyridin-4-yl)oxy)phenyl)propanamide]
Ki [1]: > 50 nM | Ki [2]: > 50 nM

Cc1c[nH]c2nccc(Oc3cccc(CC(CN)C(=O)N4CCN(C)CC4)c3)c12 (centres unmarked) [Example 9, 3-amino-2-(3-((3-methyl-1H-pyrrolo[2,3-b]pyridin-4-yl)oxy)benzyl)-1-(4-methylpiperazin-1-yl)propan-1-one]
Ki [1]: > 50 nM | Ki [2]: > 50 nM

COCCCNC(=O)C(CN)Cc1cccc(Oc2ccnc3[nH]cc(C)c23)c1 (centres unmarked) [Example 10, 3-amino-N-(3-methoxypropyl)-2-(3-((3-methyl-1H-pyrrolo[2,3-b]pyridin-4-yl)oxy)benzyl)propanamide]
Ki [1]: 5 to 50 nM | Ki [2]: 5 to 50 nM

Cc1c[nH]c2nccc(Oc3cccc(CC(CN)C(=O)NCCc4ccncc4)c3)c12 (centres unmarked) [Example 11, 3-amino-2-(3-((3-methyl-1H-pyrrolo[2,3-b]pyridin-4-yl)oxy)benzyl)-N-(2-(pyridin-4-yl)ethyl)propanamide]
Ki [1]: 5 to 50 nM | Ki [2]: 5 to 50 nM

Cc1c[nH]c2nccc(Oc3cccc(CC(CN)C(=O)NCCCN(C)C)c3)c12 (centres unmarked) [Example 12, 3-amino-N-(3-(dimethylamino)propyl)-2-(3-((3-methyl-1H-pyrrolo[2,3-b]pyridin-4-yl)oxy)benzyl)propanamide]
Ki [1]: > 50 nM | Ki [2]: > 50 nM

Cc1c[nH]c2nccc(Oc3cccc(C(CN)CC(=O)NCCc4ccncc4)c3)c12 (centres unmarked) [Example 13, 4-Amino-3-(3-((3-methyl-1H-pyrrolo[2,3-b]pyridin-4-yl)oxy)phenyl)-N-(2-(pyridin-4-yl)ethyl)butanamide]
Ki [1]: 5 to 50 nM | Ki [2]: 5 to 50 nM

COCCCNC(=O)CC(CN)c1cccc(Oc2ccnc3[nH]cc(C)c23)c1 (centres unmarked) [Example 14, 4-amino-N-(3-methoxypropyl)-3-(3-((3-methyl-1H-pyrrolo[2,3-b]pyridin-4-yl)oxy)phenyl)butanamide]
Ki [1]: 5 to 50 nM | Ki [2]: 5 to 50 nM

Cc1c[nH]c2nccc(Oc3cccc(C(CN)CC(=O)NCCCN(C)C)c3)c12 (centres unmarked) [Example 15, 4-amino-N-(3-(dimethylamino)propyl)-3-(3-((3-methyl-1H-pyrrolo[2,3-b]pyridin-4-yl)oxy)phenyl)butanamide]
Ki [1]: > 50 nM | Ki [2]: > 50 nM

Cc1c[nH]c2nccc(Oc3cccc(C(CN)CC(=O)N4CCN(C)CC4)c3)c12 (centres unmarked) [Example 16, 4-amino-3-(3-((3-methyl-1H-pyrrolo[2,3-b]pyridin-4-yl)oxy)phenyl)-1-(4-methylpiperazin-1-yl)butan-1-one]
Ki [1]: 5 to 50 nM | Ki [2]: 5 to 50 nM
